Reference: patent US4963581A, “Naphthopyran derivatives and use thereof” (Takeda Chemical Industries, Ltd., priority 1988, dated 1990)

Tests used:
[1] = system: various enzymes involved in the biosynthesis of steroid hormones; conditions: background statement in words; cited from earlier work
estrogen synthesis [2] = assay: Estrogen synthesis inhibition in rats (PMSG-stimulated); assay type: in vivo, young SD rats; conditions: 4 days, Mean ± SD
Method: Groups of five young SD rats ([…], 19 days old) were used. Test groups were administered subcutaneously with the test compounds suspended in 0.2% gum arabic-containing physiological saline in a dose of 25 mg/kg or 50 mg/kg at 24-hour intervals for consecutive 4 days. Non-test groups (control groups […]) were administered with 0.2 ml of 0.2% gum arabic-containing physiological saline. On the third day after initiation of the test, a single dose of pregnant mare serum gonadotropin (PMSG) was administered subcutaneously in a dose of 10 U/rat to the test groups and to the control group 2, following the administration of the test compounds. […] The plasma samples thus obtained were subjected to plasma estradiol-17B level determination by radioimmunoassay. The uterus and ovaries were excised from each rat and, after removal of superfluous connective tissues, weighed. The results thus obtained are shown in Table 2.4-Hydroxyandrostenedione (4-OHA) was used as a reference compound for the pharmacological effect evaluation.
*P < 0.05, **P < 0.02, ***P < 0.01, ****<0.001 against PMSG group

[3] = target: T1, Human placental aromatase (Homo sapiens, UniProt P11511); assay: In vitro human placental aromatase inhibiting activity; assay type: biochemical; conditions: substrate androstenedione 4 μM, 37° C., 1 hour
T1 construct: the pellet thus obtained was used as a microsome fraction; from tissue; host or cells: human placenta, microsome fraction
T1 sequence (P11511 1-503): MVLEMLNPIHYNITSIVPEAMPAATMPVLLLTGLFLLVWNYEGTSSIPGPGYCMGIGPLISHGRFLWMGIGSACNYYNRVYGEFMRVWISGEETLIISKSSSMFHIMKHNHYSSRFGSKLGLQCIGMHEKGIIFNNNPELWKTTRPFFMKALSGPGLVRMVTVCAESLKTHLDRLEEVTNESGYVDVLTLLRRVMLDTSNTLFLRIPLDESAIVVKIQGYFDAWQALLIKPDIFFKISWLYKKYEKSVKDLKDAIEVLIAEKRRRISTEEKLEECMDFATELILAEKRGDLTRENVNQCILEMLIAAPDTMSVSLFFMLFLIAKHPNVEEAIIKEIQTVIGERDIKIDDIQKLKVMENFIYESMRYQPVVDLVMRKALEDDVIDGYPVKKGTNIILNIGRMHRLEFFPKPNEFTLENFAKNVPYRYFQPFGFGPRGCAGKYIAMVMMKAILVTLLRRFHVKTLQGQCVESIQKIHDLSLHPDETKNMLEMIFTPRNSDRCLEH
Method: Preparation of human placental microsome:
The method of F. A. Thompson et al. [Journal of Biological Chemistry, 249, 5364 (1974)]was partly modified. Thus, a placenta was washed with cooled 0.15 M KCl and, after removal of adhering membranes and great blood vessels, minced to sufficiently small pieces by means of scissors. To the minced tissue was added cold 0.02 M phosphate buffer (pH 7.4) containing 0.25 M sucrose in an amount of 1 ml per 1 g of tissue, the mixture was homogenized with a Polytron homogenizer (30 seconds, three times, in ice) and then centrifuged at 800×g for 10 minutes, the supernatant was subjected to centrifugation at 20,000×g for 30 minutes, followed by further centrifugation at 148,000×g for 45 minutes, and the pellet thus obtained was used as a microsome fraction. The microsome obtained was suspended in the same phosphate buffer as mentioned above in a concentration corresponding to 10 g of wet placenta per ml. The suspension was stored at -80° C. and, just prior to use, diluted 5 to 6 times.
Aromatase activity measurement and inhibitory activity:
The method of F. A. Thompson et al. (vide supra) was partly modified as follows:
A reaction solution ([…]) containing 4 μM 4-androstene-3,17-dione, 140,000 dpm, 1,2[^3 H]-androstenedione, 550 μM NADPH, 20 μl of the above microsome and 5 μl of buffer or 5 μl of an inhibitor-containing solution was incubated at 37° C. for 1 hour. In this measurement system, aromatization of androstenedione gives [^3 H]--H2 O. Therefore, this reaction mixture was extracted with 0.5 ml of chloroform for separation, the aqueous layer obtained was treated with 0.25 ml of 5% active carbon for removal of free steriods and then subjected to low speed centrifugation. A scintillator (3 ml) was added to 0.2 ml of the supernatant, and the radioactivity was measured by means of a liquid scintillation counter. The percent inhibition (%) was determined by comparing the result thus obtained with the result for a control sample as obtained without adding any inhibitor. The activity was expressed in terms of IC50 (μg/ml), namely the inhibitor concentration required for 50% inhibition of the enzyme activity at the substrate (androstenedione) concentration of 4 μM.

estrogen synthesis [4] = assay: Estrogen synthesis inhibition in rats (PMSG-stimulated); assay type: in vivo, young SD rats; conditions: Test I, 100 mg/kg/day s.c., 4 days, Mean ± SD
[5] = Test I, 25 mg/kg/day s.c., PMSG control 568.6 ± 69.7
[6] = Test I, 50 mg/kg/day s.c., PMSG control 568.6 ± 69.7
[7] = Test II, 25 mg/kg/day s.c., PMSG control 240.0 ± 34.9
[8] = Test II, 50 mg/kg/day s.c., PMSG control 240.0 ± 34.9

CCC1(c2ccc(N)cc2)CCC(=O)NC1=O (centres unmarked) [Aminoglutethimide]
inhibition of various enzymes involved in the biosynthesis of steroid hormones [1]: inhibits various enzymes involved in the biosynthesis of steroid hormones

COC1=C(C2=C(OC)C(=O)c3cc4c(c(O)c3C2=O)C(=O)OC(C)C4)C(=O)c2c(cc3c(c2O)C(=O)OC(C)C3)C1=O (centres unmarked) [Compound 1, xanthomegnin]
Body weight gain (estrogen synthesis [2]; Test I, 25 mg/kg/day s.c.): 22.4 ± 3.1 g
Tissue weight, Ovaries (estrogen synthesis [2]; Test I, 25 mg/kg/day s.c.): 23.7 ± 3.4 mg
Tissue weight, Uterus (estrogen synthesis [2]; Test I, 25 mg/kg/day s.c.): 88.9 ± 9.0 mg
Plasma estradiol-17β level (estrogen synthesis [2]; [5]): 204.7 ± 67.0 pg/mL
Body weight gain (estrogen synthesis [2]; Test I, 50 mg/kg/day s.c.): 21.4 ± 2.7 g
Tissue weight, Ovaries (estrogen synthesis [2]; Test I, 50 mg/kg/day s.c.): 25.5 ± 5.5 mg
Tissue weight, Uterus (estrogen synthesis [2]; Test I, 50 mg/kg/day s.c.): 91.9 ± 14.4 mg
Plasma estradiol-17β level (estrogen synthesis [2]; [6]): 250.9 ± 161.1 pg/mL
IC50 [3]: 8.18 µM

COC1=C(C2=C(O)C(=O)c3cc4c(c(O)c3C2=O)C(=O)OC(C)C4)C(=O)c2c(cc3c(c2O)C(=O)OC(C)C3)C1=O (centres unmarked) [Compound 2, monodemethylxanthomegnin]
Tissue weight, Ovaries (estrogen synthesis [2]; Test III, 25 mg/kg/day s.c.): 29.4 ± 7.5 mg
Tissue weight, Uterus (estrogen synthesis [2]; Test III, 25 mg/kg/day s.c.): 115.7 ± 14.0 mg
Plasma estradiol-17β level (estrogen synthesis [2]; Test III, 25 mg/kg/day s.c., PMSG control 327.9 ± 126.6): 189.5 ± 123.4 pg/mL
Tissue weight, Ovaries (estrogen synthesis [2]; Test III, 50 mg/kg/day s.c.): 29.0 ± 2.5 mg
Tissue weight, Uterus (estrogen synthesis [2]; Test III, 50 mg/kg/day s.c.): 106.3 ± 14.0 mg
Plasma estradiol-17β level (estrogen synthesis [2]; Test III, 50 mg/kg/day s.c., PMSG control 327.9 ± 126.6): 195.1 ± 79.3 pg/mL
IC50 [3]: 24.1 µM

CC1Cc2cc3c(c(O)c2C(=O)O1)C(=O)C(C1=C(O)C(=O)c2cc4c(c(O)c2C1=O)C(=O)OC(C)C4)=C(O)C3=O (centres unmarked) [Compound 3, luteosporin]
Tissue weight, Ovaries (estrogen synthesis [2]; Test II, 25 mg/kg/day s.c.): 21.3 ± 4.4 mg
Tissue weight, Uterus (estrogen synthesis [2]; Test II, 25 mg/kg/day s.c.): 93.6 ± 22.4 mg
Plasma estradiol-17β level (estrogen synthesis [2]; [7]): 124.1 ± 53.3 pg/mL
Tissue weight, Ovaries (estrogen synthesis [2]; Test II, 50 mg/kg/day s.c.): 22.6 ± 5.4 mg
Tissue weight, Uterus (estrogen synthesis [2]; Test II, 50 mg/kg/day s.c.): 115.4 ± 30.4 mg
Plasma estradiol-17β level (estrogen synthesis [2]; [8]): 71.1 ± 23.4 pg/mL
IC50 [3]: 134 µM

CC1Cc2cc3c(c(O)c2C(=O)O1)C(=O)C(C1=C(O)C(=O)c2cc4c(c(O)c2C1=O)C(=O)OC(C)C4)=C(N)C3=O (centres unmarked) [Compound 4, plastatin]
Tissue weight, Ovaries (estrogen synthesis [2]; Test II, 25 mg/kg/day s.c.): 20.8 ± 3.9 mg
Tissue weight, Uterus (estrogen synthesis [2]; Test II, 25 mg/kg/day s.c.): 97.4 ± 17.8 mg
Plasma estradiol-17β level (estrogen synthesis [2]; [7]): 156.0 ± 47.8 pg/mL
Tissue weight, Ovaries (estrogen synthesis [2]; Test II, 50 mg/kg/day s.c.): 26.8 ± 4.8 mg
Tissue weight, Uterus (estrogen synthesis [2]; Test II, 50 mg/kg/day s.c.): 86.6 ± 9.6 mg
Plasma estradiol-17β level (estrogen synthesis [2]; [8]): 190.3 ± 19.9 pg/mL
IC50 [3]: 30.2 µM

C[C@]12CCC(=O)C(O)=C1CC[C@@H]1[C@@H]2CC[C@]2(C)C(=O)CC[C@@H]12 [Compound 4-OHA, 4-Hydroxyandrostenedione, reference compound]
Tissue weight, Ovaries (estrogen synthesis [2]; Test I, 100 mg/kg/day s.c.): 24.3 ± 4.5 mg
Tissue weight, Uterus (estrogen synthesis [2]; Test I, 100 mg/kg/day s.c.): 60.6 ± 9.0 mg
Plasma estradiol-17β level (estrogen synthesis [2]; Test I, 100 mg/kg/day s.c., PMSG control 568.6 ± 69.7): 115.5 ± 47.4 pg/mL
Body weight gain (estrogen synthesis [2]; Test II, 100 mg/kg/day s.c.): 22.8 ± 1.5 g
Tissue weight, Ovaries (estrogen synthesis [2]; Test II, 100 mg/kg/day s.c.): 22.3 ± 3.3 mg
Tissue weight, Uterus (estrogen synthesis [2]; Test II, 100 mg/kg/day s.c.): 61.5 ± 8.2 mg
Plasma estradiol-17β level (estrogen synthesis [2]; Test II, 100 mg/kg/day s.c., PMSG control 240.0 ± 34.9): 36.1 ± 33.0 pg/mL
Body weight gain (estrogen synthesis [2]; Test III, 100 mg/kg/day s.c.): 24.8 ± 0.8 g
Tissue weight, Ovaries (estrogen synthesis [2]; Test III, 100 mg/kg/day s.c.): 26.3 ± 1.7 mg
Tissue weight, Uterus (estrogen synthesis [2]; Test III, 100 mg/kg/day s.c.): 71.9 ± 8.6 mg
Plasma estradiol-17β level (estrogen synthesis [2]; Test III, 100 mg/kg/day s.c., PMSG control 327.9 ± 126.6): 52.3 ± 21.7 pg/mL
Body weight gain (estrogen synthesis [4]): 25.0 ± 1.6 g

COC1=C(c2c(OC)cc3cc4c(c(O)c3c2O)C(=O)OC(C)C4)C(=O)c2c(cc3c(c2O)C(=O)OC(C)C3)C1=O (centres unmarked) [Compound 5, viomellein]
Body weight gain (estrogen synthesis [2]; Test II, 25 mg/kg/day s.c.): 22.8 ± 1.8 g
Tissue weight, Ovaries (estrogen synthesis [2]; Test II, 25 mg/kg/day s.c.): 25.3 ± 4.9 mg
Tissue weight, Uterus (estrogen synthesis [2]; Test II, 25 mg/kg/day s.c.): 104.6 ± 16.6 mg
Plasma estradiol-17β level (estrogen synthesis [2]; [7]): 60.5 ± 51.1 pg/mL
Body weight gain (estrogen synthesis [2]; Test II, 50 mg/kg/day s.c.): 22.0 ± 1.2 g
Tissue weight, Ovaries (estrogen synthesis [2]; Test II, 50 mg/kg/day s.c.): 21.0 ± 2.5 mg
Tissue weight, Uterus (estrogen synthesis [2]; Test II, 50 mg/kg/day s.c.): 97.7 ± 16.0 mg
Plasma estradiol-17β level (estrogen synthesis [2]; [8]): 63.8 ± 24.3 pg/mL
IC50 [3]: 130 µM

CC1Cc2cc3c(c(O)c2C(=O)O1)C(=O)C(C1=C(N)C(=O)c2cc4c(c(O)c2C1=O)C(=O)OC(C)C4)=C(N)C3=O (centres unmarked) [Compound 6]
Tissue weight, Ovaries (estrogen synthesis [2]; Test I, 25 mg/kg/day s.c.): 32.2 ± 7.0 mg
Tissue weight, Uterus (estrogen synthesis [2]; Test I, 25 mg/kg/day s.c.): 102.2 ± 15.5 mg
Plasma estradiol-17β level (estrogen synthesis [2]; [5]): 353.2 ± 48.4 pg/mL
Tissue weight, Ovaries (estrogen synthesis [2]; Test I, 50 mg/kg/day s.c.): 32.0 ± 2.9 mg
Tissue weight, Uterus (estrogen synthesis [2]; Test I, 50 mg/kg/day s.c.): 103.1 ± 11.6 mg
Plasma estradiol-17β level (estrogen synthesis [2]; [6]): 326.0 ± 115.1 pg/mL
IC50 [3]: 7.16 µM
